Test [1] has as its system phosphorylation of ERK, KRAS G12D in AGS cells. Description: pERK inhibition assay, KRAS G12D. It counts as cell-based. The conditions noted are these: Homo sapiens, 4 hours of incubation. The procedure:
(§1) This assay is to measure the ability of test compounds in inhibiting the phosphorylation of ERK, the downstream signaling of KRAS G12C in NCI-H358 cells, KRAS G12D in AGS cells, and KRAS G12V in SW620. NCI-H358 (ATCC-CRL5807) cells, AGS (ATCC-CRL-1739) cells, SW620 (ATCC-CCL-227) cells were all grown and maintained using RPMI-1640 medium (Thermo Fisher Scientific) with 10% fetal bovine serum and 1% penicillin/streptomycin. On the day prior to compound addition, cells were plated in tissue culture-treated 96 well plates (Corning-3699) at a density of 30,000 cell/well, 20,000 cell/well, 30,000 cell/well for NCI-H358, AGS and SW620 respectively, and allowed for attachment overnight. Diluted compounds were then added in a final concentration of 0.5% DMSO. After 4 hours of incubation, the medium was removed, 100 μL of 4% formaldehyde was added, and the assay plates were incubated at room temperature for 20 minutes. The plates were then washed once with phosphate buffered saline (PBS), and permeabilized with 100 μL of chilled methanol for 10 minutes. Non-specific antibody binding to the plates was blocked using 50 μL 1×BSA blocking buffer (Thermo-37520, 10-fold dilution by Phosphate-Buffered Saline Tween (PBST) for at least 1 hour at room temperature.
(§2) The amount of phosphor-ERK was determined using an antibody specific for phosphorylated form of ERK. Primary antibody (pERK, CST-4370, Cell Signaling Technology) was diluted 1:300 in blocking buffer, with 50 μL aliquoted to each well, and incubated overnight at 4° C. Cells was washed five times for 5 minutes with PBST. Secondary antibody (HRP-linked anti-rabbit IgG, CST-7074, Cell Signaling Technology) was diluted 1:1000 in blocking buffer, and 50 μL was added to each well and incubated 1-2 hrs at room temperature. Cells was washed 5 times for 5 minutes with PBST, 100 μL TMB ELISA substrate (abcam-ab171523) were added and gently shake for 20 minutes. 50 μL stop solution (abcam-ab171529) were added, and then read the signal (OD450) by EnVision.
(§3) IC50 was determined by fitting a 4-parameter sigmoidal concentration response model.

Another test relates to SW620 cells. Description: Cell viability assay (Cell Counting Kit-8), KRAS G12V. The format is cell-based. The note with it: Homo sapiens, SW-620, 72 hrs incubation, CCK-8. The procedure:
(§4) The purpose of this cellular assay was to determine the effects of test compounds on the proliferation of human cancer cell lines NCI-H358 (ATCC-CRL5807) cells, AGS (ATCC-CRL-1739) cells, SW620 (ATCC-CCL-227) over a 3-day treatment period by quantifying the amount of NADPH present at endpoint using Cell Counting Kit-8.
(§5) Cells were seeded at 5,000 cells/well (NCI-H358), 2,000 cells/well (AGS) 2,000 cells/well (SW620) in 96-well assay plates (Corning-3699) and incubated overnight. On the day of the assay, diluted compounds were then added in a final concentration of 0.5% DMSO. After 72 hrs incubation, a tenth of the volume of cell counting kit 8 (Dnjindo-CK04) was added into each well. Read the signal (OD450 minus OD650) using EnVision after 2 hrs incubation. IC50 was determined by fitting a 4-parameter sigmoidal concentration response model.

Test [2] relates to phosphorylation of ERK, KRAS G12C in NCI-H358 cells. Description: pERK inhibition assay, KRAS G12C. It counts as cell-based. The conditions noted are these: Homo sapiens, 4 hours of incubation. The procedure:
as §1, §2, §3

The test system of test [3] is phosphorylation of ERK, KRAS G12V in SW620. Description: pERK inhibition assay, KRAS G12V. The format is cell-based. The note with it: Homo sapiens, SW-620; SW620 cells, 4 hours of incubation. How it is done: as §1, §2, §3
The target in the next test is KRAS G12C-BRAF complex (Homo sapiens (Human), UniProt P01116+P62937, G12C). Description: KRAS-BRAF with CYPA (500 nM) interaction assay (TR-FRET), G12C. The format is binding. The conditions noted are these: GMPPNP loaded 6His-KRAS, GST-BRAF RBD, 3 hours. How it is done: (§6) KRAS-BRAF with CYPA (500 nM) Interaction Assay
(§7) In this example, TR-FRET was also used to measure the compound or compound-CYPA dependent disruption of the KRAS G12C-BRAF complex. This protocol was also used to measure disruption of KRAS G12D or KRAS G12V binding to BRAF by a compound of the invention, respectively. In assay buffer containing 25 mM HEPES PH=7.4 (4-(2-hydroxyethyl)-1-piperazineethanesulfonic acid, Thermo, 15630080), 0.002% Tween20, 0.1% BSA, 100 mM NaCl, 5 mM MgCl2, 10 μM GMPPNP (Guanosine 5′-[β,γ-imido]triphosphate trisodium salt hydrate, Sigma, G0635), tagless CYPA, GMPPNP loaded 6His-KRAS proteins, and GST-BRAF^RBD were mixed in a well of a 384-well assay plate at final concentrations of 50 nM, 6.25 nM and 1 nM, respectively. Compound was present in plate wells as a 16-point 3-fold dilution series starting at a final concentration of 10 μM and incubated for 3 hours. A mixture of MAb Anti-6His-XL665 (Cisbio, 61HISXLB) and Mab anti-GST-TB cryptate (Cisbio, 61GSTTLB) was then added at a final concentration of 6.67 nM and 0.21 nM, respectively, and the plate was incubated for an additional 1.5 hours. TR-FRET signal was read on a PHERstar FSX microplate reader (Ex320 nm, Em 665/615 nm). Compounds that facilitate disruption of the KRAS-BRAF complex were identified as those eliciting a decrease in the TR-FRET ratio relative to DMSO control wells.
(In TR-FRET formats the signal depends on donor and acceptor labels being close together.)

The subject of a further test is AGS cells. Description: Cell viability assay (Cell Counting Kit-8), KRAS G12D. The format is cell-based. The conditions noted are these: Homo sapiens, 72 hrs incubation, CCK-8. How it is done:
as §4, §5
For orientation: Tetrazolium dyes change colour on reduction, which living cells bring about.

Test [4] deals with KRAS G12V binding to BRAF (Homo sapiens (Human), UniProt P01116+P62937, G12V). Description: KRAS-BRAF with CYPA (500 nM) interaction assay (TR-FRET), G12V. The note with it: GMPPNP loaded 6His-KRAS, GST-BRAF RBD, 3 hours. How it is done: as §6, §7
Test [5] addresses KRAS G12D binding to BRAF (Homo sapiens (Human), UniProt P01116+P62937, G12D). Description: KRAS-BRAF with CYPA (500 nM) interaction assay (TR-FRET), G12D. The conditions noted are these: GMPPNP loaded 6His-KRAS, GST-BRAF RBD, 3 hours. The procedure:
as §6, §7

In the next test the test system is NCI-H358 cells. Description: Cell viability assay (Cell Counting Kit-8), KRAS G12C. The note with it: Homo sapiens, 72 hrs incubation, CCK-8. It counts as cell-based. The procedure: as §4, §5

Data on two compounds can be found in patent publication US20250250284A1, “MACROCYCLE COMPOUNDS USEFUL AS KRAS INHIBITORS” (Hoffmann-La Roche Inc., priority 2022, published 2025).

Chain of KRAS G12V binding to BRAF (P01116-2 other isoform, or with tags, fused parts or gaps G12V): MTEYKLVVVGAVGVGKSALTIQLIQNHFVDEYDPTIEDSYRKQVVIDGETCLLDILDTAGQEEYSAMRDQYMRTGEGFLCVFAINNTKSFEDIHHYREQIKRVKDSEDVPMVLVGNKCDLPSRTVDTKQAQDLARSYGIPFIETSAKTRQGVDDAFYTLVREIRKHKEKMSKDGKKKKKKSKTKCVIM
Chain of KRAS G12V binding to BRAF (P62937 whole entry): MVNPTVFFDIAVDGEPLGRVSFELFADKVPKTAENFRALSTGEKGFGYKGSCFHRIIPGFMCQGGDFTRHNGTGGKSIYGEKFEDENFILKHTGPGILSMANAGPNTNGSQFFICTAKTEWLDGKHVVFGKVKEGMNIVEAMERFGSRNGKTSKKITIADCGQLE
Chain of KRAS G12D binding to BRAF (P01116-2 other isoform, or with tags, fused parts or gaps G12D): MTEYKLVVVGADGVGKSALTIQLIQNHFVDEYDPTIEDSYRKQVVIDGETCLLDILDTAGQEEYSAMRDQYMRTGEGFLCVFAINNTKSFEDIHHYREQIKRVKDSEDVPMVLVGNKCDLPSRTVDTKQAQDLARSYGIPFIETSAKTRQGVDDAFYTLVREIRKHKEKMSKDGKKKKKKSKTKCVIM
Chain of KRAS G12D binding to BRAF (P62937 whole entry): as the sequence (P62937 whole entry) above
Chain of KRAS G12C-BRAF complex (P01116-2 other isoform, or with tags, fused parts or gaps G12C): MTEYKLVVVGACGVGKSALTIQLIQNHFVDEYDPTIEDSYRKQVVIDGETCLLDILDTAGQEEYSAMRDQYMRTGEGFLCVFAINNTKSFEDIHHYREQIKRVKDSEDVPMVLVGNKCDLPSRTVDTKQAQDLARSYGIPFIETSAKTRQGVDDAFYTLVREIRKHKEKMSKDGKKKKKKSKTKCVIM
Chain of KRAS G12C-BRAF complex (P62937 whole entry): as the sequence (P62937 whole entry) above

Consider `CO[C@@H](C)c1ncc(N2CCN(C)CC2)cc1-c1c2c3c(F)c(ccc3n1CC(F)(F)F)-c1csc(n1)C[C@H](NC(=O)[C@H]1C[C@@H]1C)C(=O)N1CCC[C@H](N1)C(=O)OCC(C)(C)C2` (atropisomer, axis not shown; (M)) [Example 10, (1S,2S)—N-[(7S,13S)-25-fluoro-(20M)-20-[2-[(1S)-1-methoxyethyl]-5-(4-methylpiperazin-1-yl)-3-pyridyl]-17,17-dimethyl-8,14-dioxo-21-(2,2,2-trifluoroethyl)-15-oxa-4-thia-9,21,27,28-tetrazapentacyclo[17.5.2.1^2,5.1^9,13.0^22,26]octacosa-1(25),2,5(28),19,22(26),23-hexaen-7-yl]-2-methyl-cyclopropanecarboxamide], for which the IC50 in [1] turned out to be 0.011 µM; in the test with SW620 cells, 0.003 µM; in [2], 0.017 µM; in [3], 0.002 µM; against KRAS G12C-BRAF complex it was 0.009 µM; in the test on AGS cells, 0.013 µM. Further, the IC50 is 0.013 µM in test [4], 0.02 µM in test [5] and 0.012 µM in the test on NCI-H358 cells.

Turning to `CO[C@@H](C)c1ncc(N2CCN(C)CC2)cc1C1=C2CC(C)(C)COC(=O)[C@@H]3CCCN(N3)C(=O)[C@@H](NC(=O)[C@H]3C[C@@H]3C)Cc3nc(cs3)-c3ccc(c2c3)C1` (single isomer, unassigned) [Example A122, reference compound], the IC50 was 0.001 µM in test [1]; less than 0.001 µM in the test on SW620 cells; 0.002 µM in test [2]; less than 0.001 µM in [3]; 0.013 µM at KRAS G12C-BRAF complex; 0.001 µM in the test on AGS cells. For the same compound, the IC50 in [4] was 0.025 µM; in test [5], 0.124 µM; with NCI-H358 cells it was less than 0.001 µM.

The term IC50 denotes the midpoint of a concentration-inhibition curve. A high value points to a need for much substance.
